From patent US11981658B2, “Substituted aminopyridine compounds as EGFR inhibitors” (YUHAN CORPORATION, priority 2021, dated 2024)
Where two headings read alike, the source gives them in different places. One block for each compound: values may come before it.

Key:
EGFR wildtype (WT) = EGFR wildtype (WT) (Homo sapiens, UniProt P00533); experiment: Biochemical EGFR kinase inhibition assay (Lance Ultra TR-FRET), wildtype
Outline: (§1)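 Kinase activity is measured by TR-FRET phosphopeptide detection. Compounds span 0.003 μM to 10 μM; the 1 h reaction at room temperature is quenched with EDTA, then labelled antibody (2 nM) is incubated 60 min before reading.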

EGFR Del19/C797S = EGFR Del19/C797S (Homo sapiens, UniProt P00533, C797S/DEL746-750); experiment: Biochemical EGFR kinase inhibition assay (Lance Ultra TR-FRET), double mutant del19/C797S
Outline: as §1

EGFR Del19/T790M/C797S = EGFR Del19/T790M/C797S (Homo sapiens, UniProt P00533, C797S/DEL746-750/T790M); experiment: Biochemical EGFR kinase inhibition assay (Lance Ultra TR-FRET), triple mutant del19/T790M/C797S
EGFR Del19/T790M/C797S, sequence (P00533 with tags, fused parts or gaps DEL746-750/T790M/C797S): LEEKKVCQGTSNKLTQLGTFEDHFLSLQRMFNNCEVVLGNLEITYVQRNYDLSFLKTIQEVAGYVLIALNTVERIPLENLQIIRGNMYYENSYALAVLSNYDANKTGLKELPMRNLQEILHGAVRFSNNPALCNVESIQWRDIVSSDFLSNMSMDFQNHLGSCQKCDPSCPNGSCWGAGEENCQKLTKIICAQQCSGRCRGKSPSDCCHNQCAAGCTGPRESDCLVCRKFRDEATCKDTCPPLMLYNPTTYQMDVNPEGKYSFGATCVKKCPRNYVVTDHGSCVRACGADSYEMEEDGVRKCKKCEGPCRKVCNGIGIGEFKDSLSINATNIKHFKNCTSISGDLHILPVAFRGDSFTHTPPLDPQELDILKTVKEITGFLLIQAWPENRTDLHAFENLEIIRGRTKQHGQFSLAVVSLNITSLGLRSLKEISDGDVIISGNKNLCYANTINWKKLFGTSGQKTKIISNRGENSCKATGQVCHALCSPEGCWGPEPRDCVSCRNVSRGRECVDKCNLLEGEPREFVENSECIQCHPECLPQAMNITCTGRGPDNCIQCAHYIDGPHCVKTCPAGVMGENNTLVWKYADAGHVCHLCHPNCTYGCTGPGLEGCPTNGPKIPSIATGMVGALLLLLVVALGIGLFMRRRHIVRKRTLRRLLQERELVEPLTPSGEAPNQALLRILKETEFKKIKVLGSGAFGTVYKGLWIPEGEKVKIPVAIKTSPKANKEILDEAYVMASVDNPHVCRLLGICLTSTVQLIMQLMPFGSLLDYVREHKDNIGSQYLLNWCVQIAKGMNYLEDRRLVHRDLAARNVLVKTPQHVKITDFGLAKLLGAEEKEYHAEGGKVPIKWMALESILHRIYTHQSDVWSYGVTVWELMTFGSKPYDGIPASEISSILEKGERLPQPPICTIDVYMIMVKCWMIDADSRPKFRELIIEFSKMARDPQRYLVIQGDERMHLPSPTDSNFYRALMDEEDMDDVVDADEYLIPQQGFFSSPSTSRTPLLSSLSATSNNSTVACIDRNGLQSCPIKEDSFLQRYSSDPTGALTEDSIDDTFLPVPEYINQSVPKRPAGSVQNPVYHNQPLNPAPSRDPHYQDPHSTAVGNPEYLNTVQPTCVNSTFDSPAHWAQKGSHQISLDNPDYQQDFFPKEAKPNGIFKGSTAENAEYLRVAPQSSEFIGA
Outline: as §1

EGFR L858R/T790M/C797S = EGFR L858R/T790M/C797S (Homo sapiens, UniProt P00533, C797S/L858R/T790M); experiment: Biochemical EGFR kinase inhibition assay (Lance Ultra TR-FRET), triple mutant L858R/T790M/C797S
EGFR L858R/T790M/C797S, sequence (P00533 25-1210 T790M/C797S/L858R): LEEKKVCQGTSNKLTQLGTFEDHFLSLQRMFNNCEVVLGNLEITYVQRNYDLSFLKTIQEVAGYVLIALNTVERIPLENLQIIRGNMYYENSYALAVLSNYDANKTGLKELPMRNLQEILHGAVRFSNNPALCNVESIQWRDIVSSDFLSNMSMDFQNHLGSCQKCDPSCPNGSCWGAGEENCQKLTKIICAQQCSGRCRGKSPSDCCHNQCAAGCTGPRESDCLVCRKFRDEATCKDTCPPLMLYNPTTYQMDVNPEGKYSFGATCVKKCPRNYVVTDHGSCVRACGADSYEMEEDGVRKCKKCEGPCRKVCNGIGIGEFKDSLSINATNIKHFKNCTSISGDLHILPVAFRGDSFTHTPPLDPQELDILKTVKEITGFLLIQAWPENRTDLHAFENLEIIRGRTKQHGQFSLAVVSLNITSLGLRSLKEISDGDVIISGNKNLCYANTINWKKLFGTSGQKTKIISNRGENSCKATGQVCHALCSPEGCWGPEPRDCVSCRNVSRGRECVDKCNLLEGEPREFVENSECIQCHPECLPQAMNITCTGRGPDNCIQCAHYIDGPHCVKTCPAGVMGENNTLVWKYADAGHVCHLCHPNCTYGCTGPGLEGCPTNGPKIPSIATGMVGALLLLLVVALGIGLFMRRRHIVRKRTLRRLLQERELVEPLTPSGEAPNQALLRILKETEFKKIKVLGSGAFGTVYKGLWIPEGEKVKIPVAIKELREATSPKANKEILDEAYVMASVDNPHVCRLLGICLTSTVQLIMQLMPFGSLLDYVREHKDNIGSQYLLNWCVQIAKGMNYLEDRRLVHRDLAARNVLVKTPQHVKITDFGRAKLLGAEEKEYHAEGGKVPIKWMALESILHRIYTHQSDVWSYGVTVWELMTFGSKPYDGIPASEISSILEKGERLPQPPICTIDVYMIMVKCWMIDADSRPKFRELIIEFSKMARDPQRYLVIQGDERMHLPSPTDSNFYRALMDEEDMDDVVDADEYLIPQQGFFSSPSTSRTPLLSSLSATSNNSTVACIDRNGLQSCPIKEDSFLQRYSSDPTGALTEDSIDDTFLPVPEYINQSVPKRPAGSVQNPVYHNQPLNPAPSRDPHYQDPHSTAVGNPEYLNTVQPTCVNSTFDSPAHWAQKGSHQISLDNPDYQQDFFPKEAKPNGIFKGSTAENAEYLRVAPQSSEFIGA
Outline: as §1

EGFR L858R/C797S = EGFR L858R/C797S (Homo sapiens, UniProt P00533, C797S/L858R); experiment: Biochemical EGFR kinase inhibition assay (Lance Ultra TR-FRET), double mutant L858R/C797S
EGFR L858R/C797S, sequence (P00533 25-1210 C797S/L858R): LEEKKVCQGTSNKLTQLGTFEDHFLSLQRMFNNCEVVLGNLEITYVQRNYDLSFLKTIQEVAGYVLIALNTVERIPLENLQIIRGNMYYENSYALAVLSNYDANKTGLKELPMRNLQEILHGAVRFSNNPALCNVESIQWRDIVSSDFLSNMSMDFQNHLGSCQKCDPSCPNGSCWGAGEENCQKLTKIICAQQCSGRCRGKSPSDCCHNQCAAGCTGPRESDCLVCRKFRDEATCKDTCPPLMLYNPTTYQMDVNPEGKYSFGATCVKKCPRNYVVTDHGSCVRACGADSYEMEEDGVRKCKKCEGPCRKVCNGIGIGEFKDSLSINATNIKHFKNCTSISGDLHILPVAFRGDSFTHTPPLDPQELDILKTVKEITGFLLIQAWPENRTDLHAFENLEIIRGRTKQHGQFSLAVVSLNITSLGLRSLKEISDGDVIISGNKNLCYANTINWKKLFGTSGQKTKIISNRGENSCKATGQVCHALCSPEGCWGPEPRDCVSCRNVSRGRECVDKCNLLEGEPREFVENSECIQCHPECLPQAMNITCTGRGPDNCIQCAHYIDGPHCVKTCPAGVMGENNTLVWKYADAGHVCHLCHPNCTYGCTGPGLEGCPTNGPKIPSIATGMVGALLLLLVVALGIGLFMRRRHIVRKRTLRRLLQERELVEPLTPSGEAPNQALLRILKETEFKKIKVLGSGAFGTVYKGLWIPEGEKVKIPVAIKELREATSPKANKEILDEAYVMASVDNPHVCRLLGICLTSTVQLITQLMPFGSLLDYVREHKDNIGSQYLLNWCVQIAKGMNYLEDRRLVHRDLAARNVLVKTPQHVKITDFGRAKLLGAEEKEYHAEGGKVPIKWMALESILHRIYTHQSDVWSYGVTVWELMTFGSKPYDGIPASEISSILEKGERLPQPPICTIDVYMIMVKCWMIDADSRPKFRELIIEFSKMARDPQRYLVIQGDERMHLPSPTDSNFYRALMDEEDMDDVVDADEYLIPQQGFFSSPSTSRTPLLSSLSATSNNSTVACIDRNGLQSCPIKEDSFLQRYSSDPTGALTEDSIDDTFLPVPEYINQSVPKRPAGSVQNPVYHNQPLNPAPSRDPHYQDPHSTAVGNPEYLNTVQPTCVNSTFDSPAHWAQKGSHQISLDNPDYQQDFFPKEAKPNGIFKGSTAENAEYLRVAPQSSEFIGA
Outline: as §1

[1] = ATP at Km, read-out: IC50 WT (nM), Km ATP
[2] = ATP at Km, read-out: IC50 Del19/C797S (nM), Km ATP
[3] = IC50 Del19/C797S (nM), 100 μM ATP
[4] = ATP at Km, read-out: IC50 Del19/T790M/C797S (nM), Km ATP
[5] = IC50 Del19/T790M/C797S (nM), 100 μM ATP
[6] = ATP at Km, read-out: IC50 L858R/T790M/C797S (nM), Km ATP
[7] = IC50 L858R/T790M/C797S (nM), 100 μM ATP
[8] = ATP at Km, read-out: IC50 L858R/C797S (nM), Km ATP
[9] = IC50 L858R/C797S (nM), 100 μM ATP

EGFR wildtype (WT), sequence (P00533 25-1210): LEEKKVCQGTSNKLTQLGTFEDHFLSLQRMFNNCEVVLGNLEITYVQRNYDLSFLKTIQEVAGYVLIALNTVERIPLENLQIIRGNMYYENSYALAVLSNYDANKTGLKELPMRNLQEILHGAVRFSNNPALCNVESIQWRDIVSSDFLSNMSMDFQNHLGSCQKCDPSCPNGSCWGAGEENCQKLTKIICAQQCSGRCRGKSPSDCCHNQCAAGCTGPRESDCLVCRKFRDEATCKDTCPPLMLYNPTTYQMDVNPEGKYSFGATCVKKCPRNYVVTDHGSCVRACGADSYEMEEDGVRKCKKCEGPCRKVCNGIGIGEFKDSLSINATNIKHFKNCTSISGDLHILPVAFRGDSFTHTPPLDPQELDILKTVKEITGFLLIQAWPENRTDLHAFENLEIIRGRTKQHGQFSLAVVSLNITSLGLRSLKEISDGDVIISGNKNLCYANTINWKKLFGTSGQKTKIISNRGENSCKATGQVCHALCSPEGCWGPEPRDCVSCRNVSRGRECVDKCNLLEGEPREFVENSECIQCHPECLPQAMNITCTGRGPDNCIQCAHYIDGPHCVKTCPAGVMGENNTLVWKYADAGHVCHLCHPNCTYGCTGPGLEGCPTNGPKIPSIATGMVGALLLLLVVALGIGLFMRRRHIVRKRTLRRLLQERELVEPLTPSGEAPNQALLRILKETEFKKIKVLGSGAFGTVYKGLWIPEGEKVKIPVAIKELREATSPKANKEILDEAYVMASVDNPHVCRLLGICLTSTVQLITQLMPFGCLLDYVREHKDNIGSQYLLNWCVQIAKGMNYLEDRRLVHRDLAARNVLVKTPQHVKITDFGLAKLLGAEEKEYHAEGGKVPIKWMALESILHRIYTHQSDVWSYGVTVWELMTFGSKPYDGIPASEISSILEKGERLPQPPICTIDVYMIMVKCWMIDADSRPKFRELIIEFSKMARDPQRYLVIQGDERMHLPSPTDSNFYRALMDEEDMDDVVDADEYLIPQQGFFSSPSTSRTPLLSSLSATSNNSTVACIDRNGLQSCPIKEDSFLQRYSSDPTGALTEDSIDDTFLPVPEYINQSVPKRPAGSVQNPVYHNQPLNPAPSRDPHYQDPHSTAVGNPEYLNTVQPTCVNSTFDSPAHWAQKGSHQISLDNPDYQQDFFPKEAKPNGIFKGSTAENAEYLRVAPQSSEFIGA

- IC50 (EGFR wildtype (WT); [1]): 6.2 nM
- IC50 (EGFR wildtype (WT); IC50 WT (nM), 100 μM ATP): 2500 nM
- IC50 (EGFR Del19/C797S; [2]): 1.3 nM
- IC50 (EGFR Del19/C797S; [3]): 1 nM
- IC50 (EGFR Del19/T790M/C797S; [4]): 1.2 nM
- IC50 (EGFR Del19/T790M/C797S; [5]): 0.6 nM
- IC50 (EGFR L858R/T790M/C797S; [6]): 0.5 nM
- IC50 (EGFR L858R/T790M/C797S; [7]): 0.6 nM
- IC50 (EGFR L858R/C797S; [8]): 1.3 nM
- IC50 (EGFR L858R/C797S; [9]): 4.2 nM
SMILES: CC1(CO)CCN(c2cc(Nc3ccnc(-c4cnn(S(=O)(=O)C5CC5)c4)n3)ncc2C#Cc2cccc(C(=O)N3CCOCC3)c2)CC1 [Example 261, (3-((6-((2-(1-(Cyclopropylsulfonyl)-1H-pyrazol-4-yl)pyrimidin-4-yl)amino)-4-(4-(hydroxymethyl)-4-methylpiperidin-1-yl)pyridin-3-yl)ethynyl)phenyl)(morpholino)methanone]

- IC50 (EGFR wildtype (WT); [1]): 3 nM
- IC50 (EGFR wildtype (WT); IC50 WT (nM), 100 μM ATP): > 10000 nM
- IC50 (EGFR Del19/C797S; [2]): 0.8 nM
- IC50 (EGFR Del19/C797S; [3]): 1.3 nM
- IC50 (EGFR Del19/T790M/C797S; [4]): 1.1 nM
- IC50 (EGFR Del19/T790M/C797S; [5]): 1.5 nM
- IC50 (EGFR L858R/T790M/C797S; [6]): 0.4 nM
- IC50 (EGFR L858R/T790M/C797S; [7]): 1.2 nM
- IC50 (EGFR L858R/C797S; [8]): 0.7 nM
- IC50 (EGFR L858R/C797S; [9]): 3.2 nM
SMILES: CC1(CO)CCN(c2cc(Nc3ccnc(-c4cnn(S(=O)(=O)C5CC5)c4)n3)ncc2C#Cc2ccc(C(=O)N3CCOCC3)cc2)CC1 [Example 263, (4-((6-((2-(1-(Cyclopropylsulfonyl)-1H-pyrazol-4-yl)pyrimidin-4-yl)amino)-4-(4-(hydroxymethyl)-4-methylpiperidin-1-yl)pyridin-3-yl)ethynyl)phenyl)(morpholino)methanone]

- IC50 (EGFR wildtype (WT); [1]): 9.9 nM
- IC50 (EGFR wildtype (WT); IC50 WT (nM), 100 μM ATP): > 10000 nM
- IC50 (EGFR Del19/C797S; [2]): 1 nM
- IC50 (EGFR Del19/C797S; [3]): 1.8 nM
- IC50 (EGFR Del19/T790M/C797S; [4]): 0.7 nM
- IC50 (EGFR Del19/T790M/C797S; [5]): 0.9 nM
- IC50 (EGFR L858R/T790M/C797S; [6]): 0.3 nM
- IC50 (EGFR L858R/T790M/C797S; [7]): 0.8 nM
- IC50 (EGFR L858R/C797S; [8]): 1.3 nM
- IC50 (EGFR L858R/C797S; [9]): 14.1 nM
SMILES: CN(C)C(=O)c1cccc(C#Cc2cnc(Nc3ccnc(-c4cnn(S(=O)(=O)C5CC5)c4)n3)cc2N2CCC(C)(CO)CC2)n1 [Example 264, 6-((6-((2-(1-(Cyclopropylsulfonyl)-1H-pyrazol-4-yl)pyrimidin-4-yl)amino)-4-(4-(hydroxymethyl)-4-methylpiperidin-1-yl)pyridin-3-yl)ethynyl)-N,N-dimethylpicolinamide]

Second part, the compound before the results:

SMILES: CC1(CO)CCN(c2cc(Nc3ccnc(-c4cnn(S(=O)(=O)C5CC5)c4)n3)ncc2C#Cc2ccccn2)CC1 [Example 259, (1-(2-((2-(1-(Cyclopropylsulfonyl)-1H-pyrazol-4-yl)pyrimidin-4-yl)amino)-5-(pyridin-2-ylethynyl)pyridin-4-yl)-4-methylpiperidin-4-yl)methanol]
- IC50 (EGFR wildtype (WT); [1]): 5.3 nM
- IC50 (EGFR wildtype (WT); IC50 WT (nM), 100 μM ATP): 3400 nM
- IC50 (EGFR Del19/C797S; [2]): 0.5 nM
- IC50 (EGFR Del19/C797S; [3]): 1.2 nM
- IC50 (EGFR Del19/T790M/C797S; [4]): 0.6 nM
- IC50 (EGFR Del19/T790M/C797S; [5]): 0.5 nM
- IC50 (EGFR L858R/T790M/C797S; [6]): 0.3 nM
- IC50 (EGFR L858R/T790M/C797S; [7]): 0.5 nM
- IC50 (EGFR L858R/C797S; [8]): 1.2 nM
- IC50 (EGFR L858R/C797S; [9]): 36 nM

SMILES: CC1(CO)CCN(c2cc(Nc3ccnc(-c4cnn(S(=O)(=O)C5CC5)c4)n3)ncc2C#Cc2cccnc2)CC1 [Example 260, (1-(2-((2-(1-(Cyclopropylsulfonyl)-1H-pyrazol-4-yl)pyrimidin-4-yl)amino)-5-(pyridin-3-ylethynyl)pyridin-4-yl)-4-methylpiperidin-4-yl)methanol]
- IC50 (EGFR wildtype (WT); [1]): 2.1 nM
- IC50 (EGFR wildtype (WT); IC50 WT (nM), 100 μM ATP): 832 nM
- IC50 (EGFR Del19/C797S; [2]): 0.3 nM
- IC50 (EGFR Del19/C797S; [3]): 0.5 nM
- IC50 (EGFR Del19/T790M/C797S; [4]): 0.5 nM
- IC50 (EGFR Del19/T790M/C797S; [5]): 0.4 nM
- IC50 (EGFR L858R/T790M/C797S; [6]): 0.2 nM
- IC50 (EGFR L858R/T790M/C797S; [7]): 0.3 nM
- IC50 (EGFR L858R/C797S; [8]): 1 nM
- IC50 (EGFR L858R/C797S; [9]): 10.8 nM

SMILES: CN(C)C(=O)c1ccc(C#Cc2cnc(Nc3ccnc(-c4cnn(S(=O)(=O)C5CC5)c4)n3)cc2N2CCC(C)(CO)CC2)cc1 [Example 262, 4-((6-((2-(1-(Cyclopropylsulfonyl)-1H-pyrazol-4-yl)pyrimidin-4-yl)amino)-4-(4-(hydroxymethyl)-4-methylpiperidin-1-yl)pyridin-3-yl)ethynyl)-N,N-dimethylbenzamide]
- IC50 (EGFR wildtype (WT); [1]): 4.4 nM
- IC50 (EGFR wildtype (WT); IC50 WT (nM), 100 μM ATP): > 10000 nM
- IC50 (EGFR Del19/C797S; [2]): 0.8 nM
- IC50 (EGFR Del19/C797S; [3]): 1.1 nM
- IC50 (EGFR Del19/T790M/C797S; [4]): 1.2 nM
- IC50 (EGFR Del19/T790M/C797S; [5]): 1.4 nM
- IC50 (EGFR L858R/T790M/C797S; [6]): 0.4 nM
- IC50 (EGFR L858R/T790M/C797S; [7]): 1.3 nM
- IC50 (EGFR L858R/C797S; [8]): 0.9 nM
- IC50 (EGFR L858R/C797S; [9]): 5.7 nM
